Measurements taken from ChEMBL document CHEMBL1147134, “Indium-labeled macrocyclic conjugates of naltrindole: high-affinity radioligands for in vivo studies of peripheral delta opioid receptors” (J Med Chem, 2007).

Assays:
[1] = biological target: Kappa-type opioid receptor (Cavia porcellus, UniProt P41144); experiment: Displacement of [3H]U-69593 from kappa opioid receptor in guinea pig brain membranes; format: cell membranes, Membrane
[2] = biological target: Delta-type opioid receptor (Mus musculus, UniProt P32300); experiment: Displacement of [3H]NTI from delta opioid receptor in CD1 mouse brain membranes; format: cell membranes, Membrane
Delta-type opioid receptor, sequence (P32300 whole entry): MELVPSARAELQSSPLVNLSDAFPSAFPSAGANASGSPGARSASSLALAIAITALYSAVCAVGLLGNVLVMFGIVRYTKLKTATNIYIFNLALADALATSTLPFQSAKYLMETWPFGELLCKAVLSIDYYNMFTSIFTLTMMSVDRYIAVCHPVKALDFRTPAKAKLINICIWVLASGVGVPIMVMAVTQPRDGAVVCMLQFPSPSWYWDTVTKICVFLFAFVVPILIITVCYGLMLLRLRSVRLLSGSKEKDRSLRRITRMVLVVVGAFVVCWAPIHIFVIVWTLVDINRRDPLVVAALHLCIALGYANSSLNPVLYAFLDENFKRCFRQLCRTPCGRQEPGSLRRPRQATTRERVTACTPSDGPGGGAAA

[3] = Selectivity for mouse brain delta opioid receptor over guinea pig brain kappa opioid receptor
Mu-type opioid receptor = Mu-type opioid receptor (Cavia porcellus, UniProt P97266); experiment: Displacement of [3H]DAMGO from mu opioid receptor in guinea pig brain membranes; format: cell membranes, Membrane
Mu-type opioid receptor, sequence (P97266 whole entry): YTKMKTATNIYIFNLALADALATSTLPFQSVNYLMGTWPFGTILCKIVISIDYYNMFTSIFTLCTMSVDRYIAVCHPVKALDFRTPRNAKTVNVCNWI

[4] = Selectivity for mouse brain delta opioid receptor over guinea pig brain mu opioid receptor
[5] = Lipophilicity, log D at pH7.4; format: physicochemical; details: buffer, pH 7.4

Kappa-type opioid receptor, sequence (P41144 whole entry): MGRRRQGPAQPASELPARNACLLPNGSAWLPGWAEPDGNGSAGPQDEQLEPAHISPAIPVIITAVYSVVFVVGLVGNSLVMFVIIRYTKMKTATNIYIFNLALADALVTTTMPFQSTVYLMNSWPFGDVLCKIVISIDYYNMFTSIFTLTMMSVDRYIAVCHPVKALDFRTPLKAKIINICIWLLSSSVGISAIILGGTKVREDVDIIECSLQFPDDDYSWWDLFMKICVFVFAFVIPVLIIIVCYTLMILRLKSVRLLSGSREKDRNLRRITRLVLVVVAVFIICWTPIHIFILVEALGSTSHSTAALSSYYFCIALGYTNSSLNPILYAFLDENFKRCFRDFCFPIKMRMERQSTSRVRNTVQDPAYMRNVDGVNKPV

Work on `O=C(O)CN1CCN(CCn2c3c(c4ccccc42)C[C@@]2(O)[C@H]4Cc5ccc(O)c6c5[C@@]2(CCN4CC2CC2)[C@@H]3O6)CCN(CC(=O)O)CCN(CC(=O)O)CC1` yielded a Ki [1] of 2010 nM, a Ki [2] of 4.9 nM and a Ratio Ki [3] of 410. For the same compound, the Ki (Mu-type opioid receptor) was 1750 nM and the Ratio Ki [4] was 357.
Work on `Oc1ccc2c3c1O[C@H]1c4[nH]c5ccccc5c4C[C@@]4(O)[C@@H](C2)N(CC2CC2)CC[C@]314` [NALTRINDOLE] yielded a Ki [1] of 14.9 nM, a logD [5] of 2.41 and a Ki (Mu-type opioid receptor) of 33.9 nM.
With `O=C(O)CN1CCN(CCCCCn2c3c(c4ccccc42)C[C@@]2(O)[C@H]4Cc5ccc(O)c6c5[C@@]2(CCN4CC2CC2)[C@@H]3O6)CCN(CC(=O)O)CCN(CC(=O)O)CC1` the Ki [1] was 26.2 nM, the Ki [2] was 0.2 nM and the Ratio Ki [3] was 131. The Ki (Mu-type opioid receptor) was 48.2 nM and the Ratio Ki [4] was 241.
